# Source: patent US20260248087A1, “GENERATING DOUBLED HAPLOID PLANTS” (Syngenta Crop Protection AG, priority 2023, published 2026)
# Tests used:
# isolated embryos [1] = test: Potted rate after metcamifen co-treatment during colchicine doubling; format: in vivo, maize; conditions: for Potted Rate Mean: co-treatment with colchicine
# Description: (§1) As used herein, the term “potted rate” or “potting rate” refers to the percent of germinated embryos successfully transferred to soil from total treated haploid embryos. The “potted rate” is used as an indication of plant health in monitoring the success of recovery and growth after treatment of haploids. As used herein, the term “transplant rate” refers to the survival of healthy plants after embryos were germinated and transferred to soil.
# Isolated embryos were treated with metcamifen during colchicine doubling (also referred to as co-treatment). Metcamifen was added in the colchicine co-treatment media (a.k.a. doubling media) as a formulation at concentrations of 0, 200, 400, 800, 1200 mg/L. Metcamifen concentrations tested for a 24-hour duration ranged from 0-1000 mg/L. Metcamifen concentrations tested for a 48-hour condition ranged from 0-1200 mg/L. Three to four genotypes representing two heterotic groups were tested.
# Initial testing on three genotypes included co-treatment of metcamifen and colchicine in Gelzan media at 28° C. with 150 PAR light at concentrations of 0, 200, and 1000 mg/L to identify a range of working concentrations. The 200 and 1000 mg/L concentrations induced similar GST27 expression levels for both the 24- and 48-hour durations. The resulting induction was higher (400 ng/mg TSP GST27) than recorded with pre-treatments of ears or isolated embryos. […] Metcamifen co-treatment of isolated embryos optimization continued by testing levels of 0, 400, 600, and 800 mg/L for 24 and 48 hours with 4 genotypes across 2 heterotic groups. GST induction (ng/mg TSP) was measured after metcamifen co-treatment. […] The percent potted rate after metcamifen co-treatment was similar for both time durations when sorted by genotype or heterotic group.
# embryos from maize ears = test: Potted rate after metcamifen pre-treatment of isolated embryos; format: in vivo
# Source text: as §1
# Embryos from maize ears were isolated and treated with metcamifen prior to a colchicine doubling treatment. Isolated embryos plated on filter paper were pre-treated with a formulation of metcamifen at concentrations of 0, 10, 100, and 1000 mg/L in Murashige and Skoog Medium (MS media) for a duration of 1, 3, 5, or 7 days at 6° C. with 150 PAR light. GST27 induction was measured after pre-treatment at each time point and again at the end of the colchicine treatment. Resulting embryos were germinated, and the percentage of embryos successfully transferred to soil (percent potted rate) was measured as an indicator of plant health and pre-treatment effectiveness. GST27 was induced by metcamifen at a medium level ([…] of TSP), but higher than ear pre-treatment that was less than 10 ng/ml of TSP.
# Embryo pre-treatment with metcamifen at 10 mg/L was tested at temperatures of 6° C. and 20° C. for 1 day to measure the impact of temperature on embryo health.
# doubled haploids = test: Potting rate, thiamethoxam post-treatment during germination; format: in vivo, maize; conditions: 14-21 days
# Source text: as §1
# TMX was applied to doubled haploids by adding it to the germination media during the germination process. TMX was tested in 3 genotypes, in triplicate, with concentrations ranging from […], and the post-treatments incubated for 14 to 21 days (the normal duration of the regeneration period before transplant). The effect on potting rate was evaluated (see Table 12); no plants were advanced for transplant rate assessments due to poor germination.
# isolated embryos [2] = test: Potting and transplant rate, thiamethoxam liquid media pre-treatment prior to colchicine doubling; format: in vivo, maize
# Source text: as §1
# TMX pre-treatment application to isolated embryos prior to colchicine doubling was done in 2 genotypes with replication. Isolated embryos were plated on filter paper and pre-treated with a formulation of TMX at concentrations ranging from 10-1000 mg/L in liquid media. The pre-treatments incubated for 0.5 to 24 hours. Following the pre-treatment, embryos were treated with colchicine for chromosome doubling and plant regeneration. The effect on potting rate and transplant rate were evaluated (see Table 10).
# In a follow-up experiment, the liquid pre-treatment was tested at 30 minute and 1-hour durations to determine if a shorter duration would result in better potting and transplant rates than observed in the 1 hour treatments shown in Table 10. These were performed in the same manner as described above, in triplicate.
# [3] = initial testing, 200 and 1000 mg/L, 24-hour co-treatment
# [4] = Table 10: liquid media pre-treatment, TMX 10 mg/L, 1 hr
# [5] = Table 10: liquid media pre-treatment, TMX 10 mg/L, 24 hr
# [6] = Table 10: liquid media pre-treatment, TMX 100 mg/L, 1 hr
# [7] = Table 10: liquid media pre-treatment, TMX 100 mg/L, 24 hr
# [8] = Table 10: liquid media pre-treatment, TMX 1000 mg/L, 1 hr
# [9] = Table 10: liquid media pre-treatment, TMX 1000 mg/L, 24 hr
# [10] = Table 11: liquid pre-treatment, TMX 100 mg/L, 30 min
# [11] = Table 11: liquid pre-treatment, TMX 100 mg/L, 1 hr
# [12] = Table 11: liquid pre-treatment, TMX 1000 mg/L, 30 min
# [13] = Table 11: liquid pre-treatment, TMX 1000 mg/L, 1 hr
structure (smiles),measurement,setting,value
"CNC(=O)Nc1ccc(S(=O)(=O)NC(=O)c2ccccc2OC)cc1 [Metcamifen, metcamifen]",Potted Rate Mean,"isolated embryos [1]; 200 mg/L, 24 hours",84%
same,Potted Rate Mean,"isolated embryos [1]; 400 mg/L, 24 hours",84%
same,Potted Rate Mean,"isolated embryos [1]; 400 mg/L, 48 hours",14%
same,Potted Rate Mean,"isolated embryos [1]; 800 mg/L, 24 hours",92%
same,Potted Rate Mean,"isolated embryos [1]; 800 mg/L, 48 hours",73%
same,Potted Rate Mean,"isolated embryos [1]; 1200 mg/L, 48 hours",71%
same,percent potted rate versus 1000 mg/L and control,"isolated embryos [1]; initial testing, 200 mg/L, 48-hour co-treatment",increased the percent potted rate
same,doubled haploid ears produced versus the control,isolated embryos [1]; [3],increase in the doubled haploid ears produced
same,percent potted rate versus the control,isolated embryos [1]; [3],increased the percent potted rate
same,Potted Rate Mean,"embryos from maize ears; embryo pre-treatment 10 mg/L in MS media, 1 day, 6° C. (Table 3 experiment)",62%
same,Potted Rate Mean,"embryos from maize ears; embryo pre-treatment 10 mg/L in MS media, 1 day, 6° C. (Table 3 experiment), listed as metcamifen",significantly higher potting rate than the control
same,Potted Rate Mean,"embryos from maize ears; embryo pre-treatment 10 mg/L in MS media, 1 day, 20° C.",23%
same,Potted Rate Mean,"embryos from maize ears; embryo pre-treatment 10 mg/L in MS media, 1 day, 20° C., listed as metcamifen",2%
same,Potted Rate Mean,"embryos from maize ears; embryo pre-treatment in MS media, 10 mg/L, 1 day, 6° C.",46%
same,Potted Rate Mean,"embryos from maize ears; embryo pre-treatment in MS media, 10 mg/L, 3 days, 6° C.",38%
same,Potted Rate Mean,"embryos from maize ears; embryo pre-treatment in MS media, 10 mg/L, 5 days, 6° C.",4%
same,Potted Rate Mean,"embryos from maize ears; embryo pre-treatment in MS media, 10 mg/L, 7 days, 6° C.",27%
same,Potted Rate Mean,"embryos from maize ears; embryo pre-treatment in MS media, 100 mg/L, 1 day, 6° C.",12%
same,Potted Rate Mean,"embryos from maize ears; embryo pre-treatment in MS media, 100 mg/L, 3 days, 6° C.",12%
same,Potted Rate Mean,"embryos from maize ears; embryo pre-treatment in MS media, 100 mg/L, 5 days, 6° C.",16%
same,Potted Rate Mean,"embryos from maize ears; embryo pre-treatment in MS media, 100 mg/L, 7 days, 6° C.",24%
same,Potted Rate Mean,"embryos from maize ears; embryo pre-treatment in MS media, 1000 mg/L, 1 day, 6° C.",10%
same,Potted Rate Mean,"embryos from maize ears; embryo pre-treatment in MS media, 1000 mg/L, 3 days, 6° C.",16%
same,Potted Rate Mean,"embryos from maize ears; embryo pre-treatment in MS media, 1000 mg/L, 5 days, 6° C.",17%
same,Potted Rate Mean,"embryos from maize ears; embryo pre-treatment in MS media, 1000 mg/L, 7 days, 6° C.",17%
"CN1COCN(Cc2cnc(Cl)s2)/C1=N\[N+](=O)[O-] [TMX, thiamethoxam]",Potting Rate Mean,doubled haploids; TMX 0.5 g/L,53%
same,Potting Rate Mean,doubled haploids; TMX 1 g/L,50%
same,Potting Rate Mean,doubled haploids; TMX 1.5 g/L,27%
same,Potting Rate Mean,doubled haploids; TMX 5 g/L,3%
same,Potting Rate Mean,doubled haploids; TMX 12 g/L,0%
same,Potting Rate Mean,isolated embryos [2]; [4],55%
same,Transplant Rate Mean,isolated embryos [2]; [4],51%
same,Potting Rate Mean,isolated embryos [2]; [5],7%
same,Transplant Rate Mean,isolated embryos [2]; [5],7%
same,Potting Rate Mean,isolated embryos [2]; [6],38%
same,Transplant Rate Mean,isolated embryos [2]; [6],37%
same,Potting Rate Mean,isolated embryos [2]; [7],15%
same,Transplant Rate Mean,isolated embryos [2]; [7],15%
same,Potting Rate Mean,isolated embryos [2]; [8],58%
same,Transplant Rate Mean,isolated embryos [2]; [8],55%
same,Potting Rate Mean,isolated embryos [2]; [9],11%
same,Transplant Rate Mean,isolated embryos [2]; [9],11%
same,Potting Rate Mean,isolated embryos [2]; [10],68%
same,Transplant Rate Mean,isolated embryos [2]; [10],54%
same,Potting Rate Mean,isolated embryos [2]; [11],77%
same,Transplant Rate Mean,isolated embryos [2]; [11],66%
same,Potting Rate Mean,isolated embryos [2]; [12],51%
same,Transplant Rate Mean,isolated embryos [2]; [12],42%
same,Potting Rate Mean,isolated embryos [2]; [13],74%
same,Transplant Rate Mean,isolated embryos [2]; [13],56%
